This note sets out measurements from patent US11479556B1, “Bifunctional compounds for degrading BTK via ubiquitin proteosome pathway” (NURIX THERAPEUTICS, INC., priority 2018, dated 2022).

This experiment deals with T1, BTK (Homo sapiens, UniProt Q06187).
T1 construct: endogenous in cells; host or cells: TMD8 cells
T1 sequence (Q06187 whole entry): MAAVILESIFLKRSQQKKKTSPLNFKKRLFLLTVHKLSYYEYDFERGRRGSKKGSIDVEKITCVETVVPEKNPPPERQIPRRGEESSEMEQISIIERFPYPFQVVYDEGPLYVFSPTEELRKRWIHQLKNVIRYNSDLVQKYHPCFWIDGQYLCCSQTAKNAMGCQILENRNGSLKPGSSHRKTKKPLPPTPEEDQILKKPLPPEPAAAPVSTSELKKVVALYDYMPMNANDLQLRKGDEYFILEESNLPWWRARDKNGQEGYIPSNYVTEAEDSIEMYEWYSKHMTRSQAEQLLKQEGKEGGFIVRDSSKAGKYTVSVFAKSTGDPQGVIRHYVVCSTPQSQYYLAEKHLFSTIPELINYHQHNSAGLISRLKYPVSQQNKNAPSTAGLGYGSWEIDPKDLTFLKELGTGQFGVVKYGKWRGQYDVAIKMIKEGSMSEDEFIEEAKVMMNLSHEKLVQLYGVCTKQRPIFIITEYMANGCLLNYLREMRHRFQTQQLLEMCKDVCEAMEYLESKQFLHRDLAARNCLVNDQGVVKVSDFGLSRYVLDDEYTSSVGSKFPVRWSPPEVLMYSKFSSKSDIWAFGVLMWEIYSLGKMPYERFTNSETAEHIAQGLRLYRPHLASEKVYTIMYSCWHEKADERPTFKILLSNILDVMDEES
As to the kind of experiment: Cellular BTK HTRF assay (BTK degradation) in TMD8 cells. The following applies: four hours incubation, Total-BTK HTRF relative to DMSO-treated cells. In kind it is cell-based. The procedure:
Example 66: BTK Degradation Assay
TMD8 cells were obtained from Tokyo Medical and Dental University and were grown in alpha-MEM (Fisher 12571063) supplemented with 10% heat-inactivated FBS (Corning Premium Fetal Bovine Serum from Fisher, MT35015CV).
Compounds of the present invention were added to 50,000 TMD8 cells in round-bottom 96 well plates with a final DMSO concentration of […] and were incubated at 37° C. 5% CO2 for four hours. BTK levels were determined using Cisbio Total-BTK HTRF ([…] Time-Resolved Fluorescence) kit (63ADK064PEG) according to manufacturer's protocol. Briefly, cells were incubated in 1× supplied lysis buffer for 30 minutes. In an opaque white low volume 96 well plate (Cisbio, 66PL96005), cell lysate was combined with two different specific BTK antibodies, one conjugated with Eu^3+-Cryptate FRET donor and one conjugated with d2 FRET acceptor. Assay controls include wells containing cell lysate with only the Eu^3+-Cryptate FRET donor antibody and wells containing both HTRF antibodies and lysis buffer without cells or control lysate provided by Cisbio. HTRF ratio was calculated as (acceptor signal at 665 nm/donor signal at 620 nm)×10^4. Background HTRF levels were determined from the control well containing the donor, but no acceptor, antibody. Background HTRF levels were subtracted from all samples. Readouts were reported as HTRF levels relative to HTRF levels of DMSO-treated cells. Four-parameter non-linear regressions were performed in GraphPad Prism 7.02 to obtain DC50 values. DC50 values are provided in Table 3, wherein A<5.0 nM, 5.0 nM≤B≤15 nM, and 15 nM<C.
A general note: In TR-FRET formats the signal depends on donor and acceptor labels being close together.
As for `CN1CCN([C@@H]2CCCN(c3cnc(C(N)=O)c(Nc4ccc(C(=O)NCCOCCOCCOCCCc5cccc6c5CN(C5CCC(=O)NC5=O)C6=O)cc4)n3)C2)C1=O` (stereo partly shown) [Compound 2], the DC50 is greater than 15 nM.
Take `CN1CCN([C@@H]2CCCN(c3cnc(C(N)=O)c(Nc4ccc(C(=O)NCCOCCOCCOCCNc5cccc6c5C(=O)N(C5CCC(=O)NC5=O)C6=O)cc4)n3)C2)C1=O` (stereo partly shown) [Compound 3]: the half-maximal degradation concentration (DC50) is greater than 15 nM.
With `CN1CCN([C@@H]2CCCN(c3cnc(C(N)=O)c(Nc4ccc(OCCCNC(=O)CCCN5CCN(c6ccc7c(c6)C(=O)N(C6CCC(=O)NC6=O)C7=O)CC5)cc4)n3)C2)C1=O` (stereo partly shown) [Compound 4] the figure was greater than 15 nM; with `CN1CCN([C@@H]2CCCN(c3cnc(C(N)=O)c(Nc4ccc(OCCCNC(=O)[C@H]5C[C@@H](OCCCc6cccc7c6C(=O)N(C6CCC(=O)NC6=O)C7=O)C5)cc4)n3)C2)C1=O` (stereo partly shown) [Compound 5], greater than 15 nM.
`CN1CCN([C@@H]2CCCN(c3cnc(C(N)=O)c(Nc4ccc(OCCCNC(=O)CCCc5cccc6c5CN(C5CCC(=O)NC5=O)C6=O)cc4)n3)C2)C1=O` (stereo partly shown) [Compound 6] came in with a DC50 greater than 15 nM.
`CN1CCN([C@@H]2CCCN(c3cnc(C(N)=O)c(Nc4ccc(C5(C)CCN(C(=O)CCCc6nnc(Nc7cccc8c7CN(C7CCC(=O)NC7=O)C8=O)o6)CC5)cc4)n3)C2)C1=O` (stereo partly shown) [Compound 7] had a DC50 greater than 15 nM.
With `CN1CCN([C@@H]2CCCN(c3cnc(C(N)=O)c(Nc4ccc(C(=O)NCCCCNc5cccc6c5C(=O)N(C5CCC(=O)NC5=O)C6=O)cc4)n3)C2)C1=O` (stereo partly shown) [Compound 8] the figure was 5 to 15 nM.
As for `CN1CCN([C@@H]2CCCN(c3cnc(C(N)=O)c(Nc4ccc(C(=O)NCCOCCc5cccc6c5CN(C5CCC(=O)NC5=O)C6=O)cc4)n3)C2)C1=O` (stereo partly shown) [Compound 9], the DC50 was greater than 15 nM.
In the case of `CN1CCN([C@@H]2CCCN(c3cnc(C(N)=O)c(Nc4ccc(C5(C)CCN(C(=O)CCOCCCc6ccc7c(c6)C(=O)N(C6CCC(=O)NC6=O)C7=O)CC5)cc4)n3)C2)C1=O` (stereo partly shown) [Compound 10], the DC50 was in the range of 5 to 15 nM.
Molecule `CN1CCN([C@@H]2CCCN(c3cnc(C(N)=O)c(Nc4ccc(C5(C)CCN(C(=O)CCCN6CCN(c7ccc8c(c7)C(=O)N(C7CCC(=O)NC7=O)C8=O)CC6)CC5)cc4)n3)C2)C1=O` (stereo partly shown) [Compound 11] had a DC50 of less than 5 nM.
Consider `CN1CCN([C@@H]2CCCN(c3cnc(C(N)=O)c(Nc4ccc(N5CCN(C(=O)CN6CCN(CCc7cccc8c7CN(C7CCC(=O)NC7=O)C8=O)CC6)CC5)cc4)n3)C2)C1=O` (stereo partly shown) [Compound 12], for which the DC50 fell in the range of 5 to 15 nM.
In turn, `CN1CCN([C@@H]2CCCN(c3cnc(C(N)=O)c(Nc4ccc(C5(C)CCN(C(=O)CN6CCN(CCc7cccc8c7CN(C7CCC(=O)NC7=O)C8=O)CC6)CC5)cc4)n3)C2)C1=O` (stereo partly shown) [Compound 13] gave a DC50 of 5 to 15 nM.
For `CN1CCN([C@@H]2CCCN(c3cnc(C(N)=O)c(Nc4ccc(N5CCN(CCCc6cccc7c6CN(C6CCC(=O)NC6=O)C7=O)CC5)cc4)n3)C2)C1=O` (stereo partly shown) [Compound 15], the DC50 was less than 5 nM.
The molecule `CN1CCN([C@@H]2CCCN(c3cnc(C(N)=O)c(Nc4ccc(C5(C)CCN(CCCc6cccc7c6CN(C6CCC(=O)NC6=O)C7=O)CC5)cc4)n3)C2)C1=O` (stereo partly shown) [Compound 16] registered a DC50 of 5 to 15 nM.
`CN1CCN([C@@H]2CCCN(c3cnc(C(N)=O)c(Nc4ccc(C5(C)CCN(CCOCCCc6cccc7c6C(=O)N(C6CCC(=O)NC6=O)C7=O)CC5)cc4)n3)C2)C1=O` (stereo partly shown) [Compound 18] displayed a DC50 of 5 to 15 nM.
`CN1CCN([C@@H]2CCCN(c3cnc(C(N)=O)c(Nc4ccc(N5CCN(C(=O)CCOCCNc6cccc7c6C(=O)N(C6CCC(=O)NC6=O)C7=O)CC5)cc4)n3)C2)C1=O` (stereo partly shown) [Compound 19]: the half-maximal degradation concentration (DC50) was in the range of 5 to 15 nM.
In the case of `CN1CCN([C@@H]2CCCN(c3cnc(C(N)=O)c(Nc4ccc(C5(C)CCN(C(=O)CN6CCN(CCCc7cccc8c7CN(C7CCC(=O)NC7=O)C8=O)CC6)CC5)cc4)n3)C2)C1=O` (stereo partly shown) [Compound 20], the DC50 was less than 5 nM.
In turn, `CN1CCN([C@@H]2CCCN(c3cnc(C(N)=O)c(Nc4ccc(C5(C)CCN(CCCCc6cccc7c6CN(C6CCC(=O)NC6=O)C7=O)CC5)cc4)n3)C2)C1=O` (stereo partly shown) [Compound 21] came in with a DC50 of 5 to 15 nM.
As to `CN1CCN([C@@H]2CCCN(c3cnc(C(N)=O)c(Nc4ccc(C5(C)CCN(C(=O)CN6CCN(CCCc7cccc8c7C(=O)N(C7CCC(=O)NC7=O)C8=O)CC6)CC5)cc4)n3)C2)C1=O` (stereo partly shown) [Compound 22], the DC50 lay within 5 to 15 nM.
For `CN1CCN([C@@H]2CCCN(c3cnc(C(N)=O)c(Nc4ccc(C5CCN(C(=O)CCCCc6cccc7c6CN(C6CCC(=O)NC6=O)C7=O)CC5)cc4)n3)C2)C1=O` (stereo partly shown) [Compound 23], the DC50 lay within 5 to 15 nM.
As to `CN1CCN([C@@H]2CCCN(c3cnc(C(N)=O)c(Nc4ccc(C5CCN(C(=O)CCOCCOCCOCCNc6cccc7c6C(=O)N(C6CCC(=O)NC6=O)C7=O)CC5)cc4)n3)C2)C1=O` (stereo partly shown) [Compound 24], the DC50 lay within 5 to 15 nM.
The molecule `CN1CCN([C@@H]2CCCN(c3cnc(C(N)=O)c(Nc4ccc(C5(C)CCN(C(=O)CCCCc6cccc7c6CN(C6CCC(=O)NC6=O)C7=O)CC5)cc4)n3)C2)C1=O` (stereo partly shown) [Compound 26] came in with a DC50 of 5 to 15 nM.
With `CN1CCN([C@@H]2CCCN(c3cnc(C(N)=O)c(Nc4ccc(C5(C)CCN(C(=O)CCOCCOCCOCCNc6cccc7c6C(=O)N(C6CCC(=O)NC6=O)C7=O)CC5)cc4)n3)C2)C1=O` (stereo partly shown) [Compound 27], the half-maximal degradation concentration (DC50) is 5 to 15 nM.
In turn, `CN1CCN([C@@H]2CCCN(c3cnc(C(N)=O)c(Nc4ccc(C5(C)CCN(C(=O)CCOCCNc6cccc7c6C(=O)N(C6CCC(=O)NC6=O)C7=O)CC5)cc4)n3)C2)C1=O` (stereo partly shown) [Compound 28] had a DC50 of 5 to 15 nM.
Take `CN1CCN([C@@H]2CCCN(c3cnc(C(N)=O)c(Nc4ccc(C5CCN(C[C@@H]6CCCN(c7ccc8c(c7)C(=O)N(C7CCC(=O)NC7=O)C8=O)C6)CC5)cc4)n3)C2)C1=O` (stereo partly drawn) [Compound 32, 3-((4-(1-(((3S)-1-(2-(2,6-dioxopiperidin-3-yl)-1,3-dioxoisoindolin-5-yl)piperidin-3-yl)methyl)piperidin-4-yl)phenyl)amino)-5-((R)-3-(3-methyl-2-oxoimidazolidin-1-yl)piperidin-1-yl)pyrazine-2-carboxamide]: the 50% degradation concentration (DC50) was less than 5 nM.
The molecule `CN1CCN([C@@H]2CCCN(c3cnc(C(N)=O)c(Nc4ccc(N5CC6(CN(CCCc7cccc8c7CN(C7CCC(=O)NC7=O)C8=O)C6)C5)cc4)n3)C2)C1=O` (stereo partly shown) [Compound 33] came in with a DC50 of less than 5 nM.
As for `CN1CCN([C@@H]2CCCN(c3cnc(C(N)=O)c(Nc4ccc(C5CN(C[C@H]6CCN(c7ccc8c(c7)C(=O)N(C7CCC(=O)NC7=O)C8=O)C6)C5)cc4)n3)C2)C1=O` (stereo partly shown) [Compound 35], the DC50 is less than 5 nM.
Take `CN1CCN([C@@H]2CCCN(c3cnc(C(N)=O)c(Nc4ccc(C5CN(CCCCc6cccc7c6CN(C6CCC(=O)NC6=O)C7=O)C5)cc4)n3)C2)C1=O` (stereo partly shown) [Compound 36]: the DC50 was in the range of 5 to 15 nM.
With `CN1CCN([C@@H]2CCCN(c3cnc(C(N)=O)c(Nc4ccc(C5CCN(C[C@@H]6[C@H]7CN(c8ccc9c(c8)C(=O)N(C8CCC(=O)NC8=O)C9=O)C[C@@H]67)CC5)cc4)n3)C2)C1=O` (stereo partly shown) [Compound 39] the figure was less than 5 nM; with `CN1CCN([C@@H]2CCCN(c3cnc(C(N)=O)c(Nc4ccc(N5CCN(CCC6CCN(c7ccc8c(c7)C(=O)N(C7CCC(=O)NC7=O)C8=O)CC6)CC5)cc4)n3)C2)C1=O` (stereo partly shown) [Compound 40], less than 5 nM; with `CN1CCN([C@@H]2CCCN(c3cnc(C(N)=O)c(Nc4ccc(C5CCN(CCC6CCN(c7ccc8c(c7)C(=O)N(C7CCC(=O)NC7=O)C8=O)CC6)CC5)cc4)n3)C2)C1=O` (stereo partly shown) [Compound 41], less than 5 nM.

The DC50 is the concentration giving 50% degradation.
